The text below walks through data of patent US12616674B2, “Anti-fibrotic NEU3 inhibitor compounds and methods of use” (The Texas A&M University System, priority 2019, dated 2026).

Structures are written as SMILES. pIC50: −log10 of the molar value. “Also recorded” adds a separate entry of the source.

Assay [1] deals with C57BL/6 mice on regular or high fat diet. Put plainly: High fat diet C57BL/6 mice treated with intraperitoneal DANA. Type of assay: in vivo, mouse. The method, then: 12 week old male C57BL/6 mice (#000664; Jackson Laboratory, Farmington, CT) were fed standard rodent chow (15% kcal fat, Teklad 8604, Envigo, Madison WI) and 12-16 week old male C57BL/6 mice (#380050; Jackson) were fed a high fat diet (60% kcal fat, D12492 formula; Research Diets New Brunswick, NJ). Mice were placed on the specified diets for 6 weeks before the start of treatment. To determine if the sialidase inhibitor DANA (#252926-10MG, Millipore-Sigma, Burlington, MA) decreases high-fat diet induced weight gain, mice were treated every 48 hours with intraperitoneal injections of phosphate-buffered saline (PBS) or DANA at 10 mg/kg in PBS, formulated as 4 mg/ml in PBS. Mice were maintained on their specific diets and received injections every 48 hours for 5 weeks (35 days). Animals were housed with a 12-hour/12-hour light-dark cycle (lights on at 7 AM) with free access to food and water. All injections were performed between 9:00 and 11:00 AM. This protocol was done with specific approval of the Texas A&M University institutional animal care and use committee.
To determine the amount of steatosis (accumulation of fat in the cells of the liver), frozen sections were prepared by placing freshly isolated pieces of liver in Surgipath frozen section compound, freezing on dry ice, and storing at −80° C. 10-12 μm cryosections of liver were placed on glass slides and were stained with oil red O to detect the accumulation of lipids as described in Mehlem, A., et al., Imaging of neutral lipids by oil red O for analyzing the metabolic status in health and disease, Nat. Protoc., 2013. 8(6): p. 1149-54.
As in Example 9, mice were maintained on their specific diets and received injections of buffer or DANA every 48 hours for 5 weeks (35 days). Following euthanasia, liver tissue was removed, fixed, and then sectioned as described above.
This situation leads to elevated levels of glucose in the blood system, and following an increase in blood glucose (such as after a meal or an injection of glucose), the body takes longer than normal to reduce blood glucose levels. To determine if DANA could reduce blood glucose levels, on day 33 of the experiment described in […], mice were fasted for 16 hours starting at 5 PM. On day 34, mice received an IP injection of 1.5 g/kg glucose (Amresco, Solon, OH) formulated as 525 mg/ml in PBS. Blood glucose levels were measured before glucose administration (0 minutes), and at 20, 40, 60, 90, and 120 minutes after the injection using commercial blood glucose test strips (CVS Pharmacy, Woonsocket, RI).
Obesity is associated with increased size (weight) of many organs, including white fat and liver. To determine if the sialidase inhibitor DANA could prevent a high fat diet-induced increase in organ weights, at day 35 of the experiment described in Example 9, following euthanasia, organs including epididymal white adipose and inter-scapular brown adipose tissue, liver, spleen, lungs, and kidneys were weighed.

Assay [2] addresses T1, recombinant human sialidase NEU3 (Homo sapiens, UniProt Q9UQ49).
T1 construct: purchased Origene TP316537
T1 sequence (Q9UQ49 1-428): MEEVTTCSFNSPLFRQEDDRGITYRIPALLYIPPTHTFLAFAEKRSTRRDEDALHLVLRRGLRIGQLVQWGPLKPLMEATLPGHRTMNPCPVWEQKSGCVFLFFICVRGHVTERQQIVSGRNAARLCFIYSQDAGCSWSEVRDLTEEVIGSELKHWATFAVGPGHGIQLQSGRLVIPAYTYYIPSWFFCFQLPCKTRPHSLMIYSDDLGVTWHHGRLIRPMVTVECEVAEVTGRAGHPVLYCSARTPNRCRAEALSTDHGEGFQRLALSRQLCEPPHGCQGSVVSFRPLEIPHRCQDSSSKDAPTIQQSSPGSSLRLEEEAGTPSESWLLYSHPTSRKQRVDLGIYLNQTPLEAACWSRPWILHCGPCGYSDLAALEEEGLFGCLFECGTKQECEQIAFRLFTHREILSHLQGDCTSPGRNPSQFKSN
Put plainly: NEU3-catalyzed L-TGF-β1 activation (TGF-β1 release/concentration assay, active TGF-β1 ELISA). Type of assay: biochemical. Conditions: recombinant human NEU3, L-TGF-β1, PBS pH 6.9, 2 hours 37° C.; read-out: IC50, inhibits human NEU3 in the TGF-β1 concentration (release) assay. As to the method:
To determine if NEU3 can cause latent transforming growth factor-β1 (L-TGF-β1) to release active TGF-β1, 200 ng/ml recombinant human L-TGF-β1 (299-LT/CF, R&D Systems) was incubated with varying concentrations of recombinant human NEU3 (TP316537, Origene) in a total volume of 100 μl of PBS pH 6.9 in a 96-well microplate (651261, Greiner Bio-one, Monroe, NC). The microplates were covered with aluminum foil and incubated at 37° C. for 2 hours. Following incubation, the reaction mixtures were assayed using a TGF-β1 ELISA kit (DY240, R&D Systems) following the manufacturer's protocol with the exception that the reaction mixtures were not processed for acid treatment, so as to measure only active TGF-β1 and not total TGF-β1. The absorbance was read with a SynergyMX plate reader (BioTek, Winooski, VT).
To determine the ability of compounds 1-31 to inhibit human recombinant NEU3 in-vitro, compounds were dissolved in 5 ml water to 20 mM in 15 ml tubes (89039-664, VWR, Radnor, PA), with the exception that 4-hydroxypyridine-2-carboxylic acid, nicotinic acid, and 4-aminopicolinic acid were dissolved in 50 μl DMSO to 2 M, and this was then added to 4.95 ml of water to make a 20 mM stock, and O-(tetrahydro-2H-pyran-2yl) hydroxylamine and salicylic acid were dissolved in 50 μl methanol to 2 M, and this was then added to 4.95 ml of water to make a 20 mM stock. All stocks were stored at 4° C. and used within 2 weeks of preparation. A 10-fold dilution series of the compounds starting at 2 mM were made in PBS pH 6.9 in 1.7 ml clear microtubes (22-281, Genesee Scientific). 100 μl of diluted compound was added to the well of a 96 well plate and then 50 μl of 400 ng/ml recombinant human sialidase NEU3 (TP316537, Origene) in PBS pH 6.9 was added to each well (50 μl PBS pH 6.9 for the control), and the plate was incubated for 30 minutes at 37° C. 50 μl of 800 ng/ml L-TGF-β1 (299-LT/CF, R&D Systems) in PBS pH 6.9 was then added to the well. The plate was covered with aluminum foil and incubated for 2 hours at 37° C., and released active TGF-β1 was assayed as described above.
For orientation: In an ELISA, binding on a coated surface is turned into a signal by an enzyme label.

Assay [3] has as its system NEU3 enzymic activity, hepatic steatosis and weight gain in mice. Conditions: oral administration; cited from earlier work.
[4] abbreviates: HFD mice, DANA vs control HFD, day 35, FIG. 19.

As for `CC(=O)N[C@@H]1C(O)C=C(C(=O)O)O[C@H]1[C@H](O)[C@H](O)CO` (stereo partly shown) [Compound 1, DANA], the “oil red O staining in the liver (neutral lipid accumulation)” value in assay [1] (HFD mice, DANA 10 mg/kg i.p. every 48 hours for 35 days, vs saline, FIG. 14) is on record as “significant reduction”. The “F4/80 positive cells in the liver” value in assay [1] (HFD mice, DANA i.p. every 48 hours for 35 days, vs saline, FIG. 15) was “significant reduction”. Besides, the “high fat diet induced weight gain” value in assay [1] (HFD mice, DANA i.p. injections vs PBS, after 21 days of treatment, FIG. 16) is listed as “prevents weight gain; also recorded: significant reduction in weight gain”. Further, the “total glucose levels (AUC over 120 minutes)” value in assay [1] (HFD mice, DANA vs HFD control, FIG. 18) is listed as “significantly lower”. The “blood glucose levels after glucose injection” value in assay [1] (HFD mice, DANA vs control HFD, at 60 minutes after 1.5 g/kg IP glucose, FIG. 17) is on record as “significantly lower”. In assay [1] (setting [4]), the “brown fat weight (percent of body weight)” value is on record as “significantly lower” and the “white fat weight (percent of body weight)” value is “significantly lower”. Besides, the “weight of mice on regular chow” value in assay [1] (regular chow mice, DANA vs PBS injections) is recorded as “no effect; also recorded: no significant differences in weight”. In addition, in assay [1] (regular chow mice, DANA vs PBS, day 35, FIG. 19), the organ weights entry is listed as “no significant differences in any organ weights”. Also, the “oil red O staining in the liver” value in assay [1] (regular diet mice, DANA 10 mg/kg i.p. every 48 hours for 35 days, vs saline) is reported as “no significant difference”. The “F4/80 staining in the liver” value in assay [1] (regular diet mice, DANA i.p. every 48 hours for 35 days, vs saline) is “no significant difference”. Also, the “fasting glucose levels or glucose levels after the glucose injection” value in assay [1] (standard chow mice, DANA vs PBS, FIG. 17) is “no significant differences”. Also, the pIC50 in assay [2] is 3.60. Further, in assay [3], the HFD-induced weight gain entry is “attenuated”, the “NEU3 enzymic activity in the small intestine” value was “inhibited” and the hepatic steatosis result was “attenuated”.
